Measurements: patent US20150307520A1, “NOVEL HETEROARYL AND HETEROCYCLE COMPOUNDS, COMPOSITIONS AND METHODS THEREOF” (HUTCHISON MEDIPHARMA LIMITED, priority 2012, published 2015)

Tests used:
Assay type in all cases: biochemical
p110β/p85α = p110β/p85α (Homo sapiens, UniProt P42338); experiment: Transcreener KINASE Assay, kinase inhibition of p110β/p85α; details: for PI3Kβ IH % @ 1 uM: 1 uM test compound; for IC50: read-out: PI3Kβ IC50
Method: (§1) PI3K kinases including p110α/p85α, p110δ/p85α and p110γ are purchased from Invitrogen, and p110β/p85α is from Millipore.
(§2) Primary screening data and IC50 values are measured using Transcreener™ KINASE Assay (Bellbrook, Catalog #3003-10K). […] It is a universal, homogenous, high throughput screening (HTS) technology using a far-red, competitive fluorescence polarization immunoassay based on the detection of ADP to monitor the activity of enzymes that catalyze group transfer reactions. Briefly, the Transcreener KINASE Assay is designed as a simple two-part, endpoint assay.
(§3) In the first step, the 25 ul kinase reaction is performed by preparing a reaction mixture containing 5 ul test compound (2% DMSO final concentration), 10 ul kinase, buffer (50 mM HEPES, 100 mM NaCl, 1 mM EGTA, 0.03% CHAPS, 3 mM MgCl2, and freshly supplemented 1 mM DTT), and 10 ul 30 uM PIP2/10 uM ATP. The plate is sealed and incubated for 80 min at room temperature. Next, 25 ul ADP detection mix is added per well. The plate is sealed again and incubated for 60 min at room temperature, and then measure fluorescence polarization by Tecan Infinite F500 Reader.
(§4) Data is analyzed and IC50s are generated using the add-in software for Microsoft Excel, Xlfit™ (version 2.0). IH %=(ADP amount under 2% DMSO-ADP amount under test compound)/ADP amount under 2% DMSO.

p110δ/p85α = p110δ/p85α (Homo sapiens, UniProt O00329); experiment: Transcreener KINASE Assay, kinase inhibition of p110δ/p85α; details: for PI3Kδ IH % @ 1 uM: 1 uM test compound; for IC50: read-out: PI3Kδ IC50
Sequence of p110δ/p85α (O00329 whole entry): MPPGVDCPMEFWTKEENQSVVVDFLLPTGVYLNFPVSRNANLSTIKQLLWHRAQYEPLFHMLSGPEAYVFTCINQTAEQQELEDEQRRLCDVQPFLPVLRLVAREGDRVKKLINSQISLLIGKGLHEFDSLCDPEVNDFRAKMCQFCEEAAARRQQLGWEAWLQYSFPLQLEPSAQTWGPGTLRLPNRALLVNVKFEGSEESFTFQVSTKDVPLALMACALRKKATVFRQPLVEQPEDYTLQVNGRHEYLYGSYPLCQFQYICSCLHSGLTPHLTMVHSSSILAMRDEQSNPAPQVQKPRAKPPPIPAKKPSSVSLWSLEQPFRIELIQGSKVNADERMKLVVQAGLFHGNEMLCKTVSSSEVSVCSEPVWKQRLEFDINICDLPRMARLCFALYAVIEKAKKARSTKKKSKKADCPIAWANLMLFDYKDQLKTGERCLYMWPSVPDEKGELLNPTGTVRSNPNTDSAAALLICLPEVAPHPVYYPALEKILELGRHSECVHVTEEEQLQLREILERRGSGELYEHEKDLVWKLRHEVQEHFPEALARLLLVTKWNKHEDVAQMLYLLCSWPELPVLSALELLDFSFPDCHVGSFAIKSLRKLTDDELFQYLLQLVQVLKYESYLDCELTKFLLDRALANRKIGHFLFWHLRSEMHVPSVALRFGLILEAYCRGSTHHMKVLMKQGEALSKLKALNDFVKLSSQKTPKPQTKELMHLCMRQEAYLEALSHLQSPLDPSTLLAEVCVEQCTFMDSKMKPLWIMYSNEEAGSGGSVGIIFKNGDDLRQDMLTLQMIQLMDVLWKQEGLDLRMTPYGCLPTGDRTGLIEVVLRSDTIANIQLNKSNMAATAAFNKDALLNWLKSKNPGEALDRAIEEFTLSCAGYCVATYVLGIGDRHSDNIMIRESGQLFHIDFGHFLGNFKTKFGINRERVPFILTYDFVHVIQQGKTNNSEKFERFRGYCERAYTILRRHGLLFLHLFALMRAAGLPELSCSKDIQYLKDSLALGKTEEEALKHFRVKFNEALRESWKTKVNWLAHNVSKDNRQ
Sequence of p110δ/p85α (P27986 whole entry partner): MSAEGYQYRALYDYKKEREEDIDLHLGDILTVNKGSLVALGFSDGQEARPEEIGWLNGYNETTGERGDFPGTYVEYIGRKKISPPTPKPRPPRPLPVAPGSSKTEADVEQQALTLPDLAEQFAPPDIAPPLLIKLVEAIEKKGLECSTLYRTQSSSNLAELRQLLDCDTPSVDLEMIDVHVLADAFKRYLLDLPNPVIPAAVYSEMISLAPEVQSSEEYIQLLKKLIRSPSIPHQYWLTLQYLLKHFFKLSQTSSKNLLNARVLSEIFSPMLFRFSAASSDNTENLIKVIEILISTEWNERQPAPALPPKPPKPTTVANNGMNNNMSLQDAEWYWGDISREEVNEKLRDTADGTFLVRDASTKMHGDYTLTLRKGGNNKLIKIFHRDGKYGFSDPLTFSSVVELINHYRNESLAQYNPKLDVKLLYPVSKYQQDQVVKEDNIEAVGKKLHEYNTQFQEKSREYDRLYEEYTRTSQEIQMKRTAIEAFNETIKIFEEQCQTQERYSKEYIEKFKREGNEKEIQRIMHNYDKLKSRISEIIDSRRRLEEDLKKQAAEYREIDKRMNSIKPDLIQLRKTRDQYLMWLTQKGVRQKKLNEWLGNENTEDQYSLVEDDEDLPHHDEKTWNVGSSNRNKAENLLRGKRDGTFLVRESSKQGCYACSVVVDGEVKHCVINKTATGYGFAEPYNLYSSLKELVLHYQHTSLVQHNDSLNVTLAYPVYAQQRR
Method: as §1, §2, §3, §4

p110γ = p110γ (Homo sapiens, UniProt P48736); experiment: Transcreener KINASE Assay, kinase inhibition of p110γ; details: for PI3Kγ IH % @ 1 uM: 1 uM test compound; for IC50: read-out: PI3Kγ IC50
Sequence of p110γ (P48736 whole entry): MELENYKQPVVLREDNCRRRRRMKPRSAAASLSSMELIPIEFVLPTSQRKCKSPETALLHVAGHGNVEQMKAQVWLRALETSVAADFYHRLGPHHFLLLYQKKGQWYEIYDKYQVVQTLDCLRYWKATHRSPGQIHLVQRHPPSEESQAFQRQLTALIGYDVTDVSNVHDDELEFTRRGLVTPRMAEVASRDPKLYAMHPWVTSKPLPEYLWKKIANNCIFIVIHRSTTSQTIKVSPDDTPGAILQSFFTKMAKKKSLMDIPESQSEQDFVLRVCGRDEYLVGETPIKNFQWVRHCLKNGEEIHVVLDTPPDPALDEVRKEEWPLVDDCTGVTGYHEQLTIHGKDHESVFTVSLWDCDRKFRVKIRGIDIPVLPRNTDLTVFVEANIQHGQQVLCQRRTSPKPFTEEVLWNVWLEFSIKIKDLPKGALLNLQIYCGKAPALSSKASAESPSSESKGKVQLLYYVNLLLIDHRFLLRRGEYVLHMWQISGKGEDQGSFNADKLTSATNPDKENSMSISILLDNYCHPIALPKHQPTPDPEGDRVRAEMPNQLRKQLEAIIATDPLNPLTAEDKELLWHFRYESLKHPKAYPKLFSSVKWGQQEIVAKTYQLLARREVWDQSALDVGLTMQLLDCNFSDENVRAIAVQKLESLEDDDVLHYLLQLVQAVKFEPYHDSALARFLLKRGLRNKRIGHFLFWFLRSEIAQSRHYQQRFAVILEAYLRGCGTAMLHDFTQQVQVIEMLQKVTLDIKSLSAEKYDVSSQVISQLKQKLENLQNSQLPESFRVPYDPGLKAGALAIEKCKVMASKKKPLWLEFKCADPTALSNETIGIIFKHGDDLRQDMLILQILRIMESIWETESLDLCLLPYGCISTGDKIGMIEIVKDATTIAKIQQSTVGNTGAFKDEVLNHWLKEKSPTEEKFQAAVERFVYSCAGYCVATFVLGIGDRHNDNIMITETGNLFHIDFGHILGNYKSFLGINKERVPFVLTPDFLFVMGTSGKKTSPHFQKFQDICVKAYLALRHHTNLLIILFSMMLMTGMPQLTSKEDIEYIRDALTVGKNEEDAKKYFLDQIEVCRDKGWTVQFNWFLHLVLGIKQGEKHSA
Method: Kinase Inhibition assays of p110α/p85α, p110β/p85α, p110δ/p85α and p110γ PI3K kinases including p110α/p85α, p110δ/p85α and p110γ are purchased from Invitrogen, and p110β/p85α is from Millipore. Primary screening data and IC50 values are measured using Transcreener™ KINASE Assay (Bellbrook, Catalog #3003-10K). […] It is a universal, homogenous, high throughput screening (HTS) technology using a far-red, competitive fluorescence polarization immunoassay based on the detection of ADP to monitor the activity of enzymes that catalyze group transfer reactions. Briefly, the Transcreener KINASE Assay is designed as a simple two-part, endpoint assay. […] The plate is sealed and incubated for 80 min at room temperature. Next, 25 ul ADP detection mix is added per well. The plate is sealed again and incubated for 60 min at room temperature, and then measure fluorescence polarization by Tecan Infinite F500 Reader. Data is analyzed and IC50s are generated using the add-in software for Microsoft Excel, Xlfit™ (version 2.0).

Sequence of p110β/p85α (P42338 whole entry): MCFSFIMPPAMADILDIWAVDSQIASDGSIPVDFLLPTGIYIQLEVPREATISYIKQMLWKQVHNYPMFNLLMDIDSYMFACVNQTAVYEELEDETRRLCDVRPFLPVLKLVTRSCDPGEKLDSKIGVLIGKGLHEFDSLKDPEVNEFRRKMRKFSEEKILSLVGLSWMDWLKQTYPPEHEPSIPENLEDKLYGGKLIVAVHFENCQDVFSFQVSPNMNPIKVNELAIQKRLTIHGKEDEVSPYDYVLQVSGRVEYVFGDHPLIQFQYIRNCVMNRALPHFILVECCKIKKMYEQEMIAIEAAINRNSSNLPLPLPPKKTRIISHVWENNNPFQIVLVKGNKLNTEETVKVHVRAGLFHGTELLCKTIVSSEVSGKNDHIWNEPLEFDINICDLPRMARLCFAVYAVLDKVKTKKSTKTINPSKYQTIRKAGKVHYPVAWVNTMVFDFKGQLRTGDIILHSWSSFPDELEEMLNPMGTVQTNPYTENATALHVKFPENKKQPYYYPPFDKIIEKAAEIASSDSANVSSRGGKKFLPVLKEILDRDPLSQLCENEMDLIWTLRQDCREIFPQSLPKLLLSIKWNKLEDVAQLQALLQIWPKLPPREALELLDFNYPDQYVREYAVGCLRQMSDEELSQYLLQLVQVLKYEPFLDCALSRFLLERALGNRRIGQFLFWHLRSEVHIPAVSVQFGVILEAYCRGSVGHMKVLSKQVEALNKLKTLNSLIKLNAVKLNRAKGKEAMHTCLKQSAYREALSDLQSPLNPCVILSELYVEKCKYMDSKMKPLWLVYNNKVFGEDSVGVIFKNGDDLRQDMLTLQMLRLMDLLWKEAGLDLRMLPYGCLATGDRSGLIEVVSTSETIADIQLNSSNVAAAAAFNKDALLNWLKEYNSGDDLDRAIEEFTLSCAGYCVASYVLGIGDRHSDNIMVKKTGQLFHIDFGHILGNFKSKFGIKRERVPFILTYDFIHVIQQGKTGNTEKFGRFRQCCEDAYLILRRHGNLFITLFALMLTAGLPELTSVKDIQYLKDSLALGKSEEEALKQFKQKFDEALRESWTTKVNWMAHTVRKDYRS
Sequence of p110β/p85α (P27986 2-724 partner): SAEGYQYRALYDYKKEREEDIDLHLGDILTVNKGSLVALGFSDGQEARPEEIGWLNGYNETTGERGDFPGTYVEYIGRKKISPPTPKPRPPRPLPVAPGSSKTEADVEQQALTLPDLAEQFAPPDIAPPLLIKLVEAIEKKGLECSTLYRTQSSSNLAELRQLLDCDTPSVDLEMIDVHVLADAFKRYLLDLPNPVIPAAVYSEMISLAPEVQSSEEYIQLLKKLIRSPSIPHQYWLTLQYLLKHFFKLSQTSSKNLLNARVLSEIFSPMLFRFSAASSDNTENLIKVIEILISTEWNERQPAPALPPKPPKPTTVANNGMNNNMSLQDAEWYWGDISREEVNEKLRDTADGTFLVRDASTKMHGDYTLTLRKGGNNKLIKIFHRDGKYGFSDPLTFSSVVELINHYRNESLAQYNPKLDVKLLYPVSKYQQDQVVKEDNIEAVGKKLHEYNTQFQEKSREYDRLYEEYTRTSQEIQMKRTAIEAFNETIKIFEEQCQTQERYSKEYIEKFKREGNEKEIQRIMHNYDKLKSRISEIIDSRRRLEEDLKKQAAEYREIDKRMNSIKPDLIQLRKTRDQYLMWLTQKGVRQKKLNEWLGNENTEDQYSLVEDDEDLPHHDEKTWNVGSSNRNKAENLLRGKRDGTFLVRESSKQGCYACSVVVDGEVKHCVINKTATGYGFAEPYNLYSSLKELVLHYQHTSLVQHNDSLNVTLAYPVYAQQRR

| PI3Kβ IH % @ 1 uM (p110β/p85α) [%] | IC50 (p110β/p85α) [µM] | PI3Kδ IH % @ 1 uM (p110δ/p85α) [%] | IC50 (p110δ/p85α) [µM] | PI3Kγ IH % @ 1 uM (p110γ) [%] | IC50 (p110γ) [µM] | SMILES |
| --- | --- | --- | --- | --- | --- | --- |
| 83.3 | 0.075 | >100 | 0.004 | 95.9 | 0.01 | C[C@H](Nc1nc(N)ncc1C#N)c1cc2ncc(Cl)n2c(=O)n1-c1ccccc1 (single isomer, unassigned) [Compound 385] |
| 76.8 | 0.322 | >100 | 0.003 | 95.0 | 0.021 | C[S@+]([O-])c1c[nH]c2ncnc(N3CCC[C@H]3c3nn4ccc(Cl)c4c(=O)n3-c3cccc(F)c3)c12 (single isomer, unassigned) [Compound 386] |
| 39.6 | – | 98.2 | 0.007 | >100 | 0.009 | C[S+]([O-])c1c[nH]c2ncnc(N3CCC[C@H]3c3nn4ccc(Cl)c4c(=O)n3-c3cccc(F)c3)c12 (single isomer, unassigned) [Compound 387] |
| 32.7 | – | 95.4 | 0.007 | 87.9 | 0.046 | C[S+]([O-])c1c[nH]c2ncnc(N3CCC[C@H]3c3nn4ccc(Cl)c4c(=O)n3-c3ccccn3)c12 (single isomer, unassigned) [Compound 389] |
| >100 | – | 94.9 | – | >100 | – | CC(Nc1nc(N)nc2c1C(=O)CCN2)c1cn2ccc(F)c2c(=O)n1-c1ccccc1 (single isomer, unassigned) [Compound 407] |
| 55.9 | – | 98.8 | 0.017 | 82.3 | 0.105 | CC(=O)c1cnc(N)nc1N[C@H](C)c1cc2ncc(Cl)n2c(=O)n1-c1ccccc1 (single isomer, unassigned) [Compound 448] |
| 87.2 | – | 96.1 | – | 97.8 | – | CC(Nc1nc(N)ncc1C#N)c1cn2ccc(F)c2c(=O)n1-c1ccccc1 (single isomer, unassigned) [Compound 449] |
| 76.9 | – | 99.3 | – | 98.6 | – | CC(Nc1ncnc2[nH]cc(F)c12)c1cc2ncc(Cl)n2c(=O)n1-c1ccccc1 (single isomer, unassigned) [Compound 450] |
| 4.2 | – | 96.4 | – | 40.5 | – | CC(Nc1ncnc2[nH]cc(F)c12)c1cc2ncc(Cl)n2c(=O)n1-c1ccccc1 (single isomer, unassigned) [Compound 451] |
| 97.0 | – | >100 | – | 92.5 | – | CC(=O)c1cnc(N)nc1NC(C)c1cn2ccc(F)c2c(=O)n1-c1ccccc1 (single isomer, unassigned) [Compound 452] |
| 88.3 | 0.022 | >100 | 0.0001 | >100 | 0.006 | CC(=O)c1cnc(N)nc1N1CC(C)(C)C1c1nn2ccc(Cl)c2c(=O)n1-c1ccccc1 (stereo in doubt) [Compound 484, (R)-2-(1-(5-acetyl-2-aminopyrimidin-4-yl)-3,3-dimethylazetidin-2-yl)-5-chloro-3-phenylpyrrolo[2,1-f][1,2,4]triazin-4(3H)-one] |
| 33.3 | – | 76.2 | 0.272 | 40.2 | – | N#Cc1c(N)ncnc1N1CC[C@H]1c1nn2cccc2c(=O)n1-c1ccccc1 [Compound 8] |
| 82.6 | 0.1 | >100 | 0.003 | 92.7 | 0.051 | Nc1ncnc(N2CCC[C@H]2c2nn3ccc(Cl)c3c(=O)n2-c2ccccc2)c1Cl [Compound 27] |
| −3.1 | – | 71.9 | 0.212 | 63.7 | – | COc1cccc(-n2c([C@@H]3CCN3c3ncnc4[nH]cnc34)nn3ccc(Cl)c3c2=O)c1 [Compound 33] |
| 30.6 | – | 81.2 | – | 83.3 | 0.089 | N#Cc1c[nH]c2ncnc(N3CC[C@H]3c3nn4ccc(Cl)c4c(=O)n3-c3ccc(F)cc3)c12 [Compound 37] |
| 20.7 | – | 94.2 | – | 16.5 | – | N#Cc1cccc(-n2c([C@@H]3CCCN3c3ncnc4[nH]cc(C#N)c34)nn3ccc(Cl)c3c2=O)c1 [Compound 39] |

| PI3Kβ IH % @ 1 uM (p110β/p85α) [%] | IC50 (p110β/p85α) [µM] | PI3Kδ IH % @ 1 uM (p110δ/p85α) [%] | IC50 (p110δ/p85α) [µM] | PI3Kγ IH % @ 1 uM (p110γ) [%] | IC50 (p110γ) [µM] | SMILES |
| --- | --- | --- | --- | --- | --- | --- |
| 19.8 | – | 74.0 | – | 6.5 | – | N#Cc1cccc(-n2c([C@@H]3CCCN3c3ncnc4[nH]cnc34)nn3ccc(Cl)c3c2=O)c1 [Compound 40] |
| 80.2 | 0.066 | 91.7 | 0.006 | >100 | 0.021 | O=c1c2c(Cl)ccn2nc([C@@H]2CCCN2c2ncnc3[nH]cnc23)n1-c1ccc(F)cc1 [Compound 41] |
| 71.9 | 0.795 | 100 | – | 80.9 | 0.172 | Cc1ccn2nc([C@@H]3CCCN3c3ncnc(N)c3Cl)n(-c3ccccc3)c(=O)c12 [Compound 45] |
| 33.8 | – | >100 | 0.014 | 68.1 | – | N#Cc1c[nH]c2ncnc(N3CC[C@H]3c3nn4ccc(F)c4c(=O)n3-c3ccccc3)c12 [Compound 46] |
| 47.3 | – | >100 | 0.026 | 84.7 | 0.152 | O=c1c2c(Cl)ccn2nc([C@@H]2C[C@@H](F)CN2c2ncnc3[nH]cnc23)n1-c1ccccc1 [Compound 47] |
| 69.7 | 0.501 | 98.4 | 0.004 | 86.1 | 0.058 | N#Cc1c[nH]c2ncnc(N3C[C@H](F)C[C@H]3c3nn4ccc(Cl)c4c(=O)n3-c3ccccc3)c12 [Compound 48] |
| −4.8 | – | 8.4 | – | 8.9 | – | Nc1nc(N2CCC[C@H]2c2nn3ccc(Cl)c3c(=O)n2-c2ccccc2)ncc1C(F)(F)F [Compound 49] |
| 90.8 | 0.049 | – | – | >100 | 0.008 | CC(Nc1ncnc2[nH]cnc12)c1cn2ccc(Cl)c2c(=O)n1-c1ccccc1 (centres unmarked) [Compound 87] |
| – | – | – | 0.524 | – | – | Nc1ncc(C(=O)C(F)(F)F)c(N2CC[C@H]2c2nn3ccc(Cl)c3c(=O)n2-c2ccccc2)n1 [Compound 325] |
| – | – | 50.3 | – | 91.6 | 0.227 | Nc1nc(N2CC[C@H]2c2nn3ccc(Cl)c3c(=O)n2-c2ccccc2)c2cccn2n1 [Compound 329, (S)-2-(1-(2-aminopyrrolo[2,1-f][1,2,4]triazin-4-yl)azetidin-2-yl)-5-chloro-3-phenyl-pyrrolo[2,1-f][1,2,4]triazin-4(3H)-one] |
| 37.4 | – | – | – | – | – | N#Cc1cnc(N)nc1N1CCC1c1nn2ccc(Cl)c2c(=O)n1CC1CC1 (centres unmarked) [Compound 373] |
| 55.70 | – | – | – | 93.5 | – | C[C@H]1CN(c2ncnc(N)c2C#N)C1c1nn2ccc(Cl)c2c(=O)n1-c1ccccc1 (some centres unmarked) [Compound 494] |
| – | – | 99.5 | – | >100 | – | CC(=O)c1cnc(N)nc1N1CC[C@H]1c1nn2ccc(Cl)c2c(=O)n1-c1cc(F)cc(F)c1 [Compound 495] |
| – | – | >100 | 0.021 | >100 | 0.013 | CC(=O)c1cnc(N)nc1N1CC[C@H]1c1nn2ccc(C#N)c2c(=O)n1-c1ccccc1 [Compound 498] |
| – | – | >100 | – | >100 | – | CC(=O)c1c(N)ncnc1N1C[C@H](C)[C@H]1c1nn2ccc(Cl)c2c(=O)n1-c1ccccc1 [Compound 509] |
| – | – | >100 | – | >100 | – | CC(=O)c1cnc(N)nc1N1C[C@H](C)[C@H]1c1nn2ccc(Cl)c2c(=O)n1-c1cc(F)cc(F)c1 [Compound 518] |
